Patent US20070128217A1 (priority 2003, published 2007)

Legend:
[1] = system: rabbit serum obtained by immunizing a rabbit with the SARS-CoV strain Frankfurt 1; format: binding; parameters: Binding of a rabbit serum to linear peptides / Binding of a rabbit serum to looped peptides / Rabbit serum linear peptides / Rabbit serum looped peptides / Binding of a rabbit serum to linear peptides of protein N of SARS-CoV Urbani (Rabbit serum linear peptides) / Binding of a rabbit serum to looped/cyclic peptides of protein N of SARS-CoV Urbani (Rabbit serum looped peptides): unit not given here
[2] = system: recombinant human anti-SARS-CoV antibody 03-018; format: binding; parameters: Binding of antibody 03-018 to linear peptides of the N protein of SARS-CoV Urbani / Binding of antibody 03-018 to looped/cyclic peptides of the N protein of SARS-CoV Urbani: unit not given here
[3] = system: control sera (pooled serum of ten healthy LUMC hospital workers; commercial negative donor pooled serum from the Dutch bloodbank); format: binding, human; parameters: Binding of Control serum LUMC to linear peptides / Binding of Control serum Blood-bank to linear peptides / Binding of Control serum LUMC to looped peptides / Binding of Control Serum Blood-Bank to Looped peptides / Binding of Control serum LUMC to linear peptides of the protein M of SARS-CoV Urbani / Binding of Control serum Blood-bank to linear peptides of the protein M of SARS-CoV Urbani / Binding of Control serum LUMC to looped peptides of the protein M of SARS-CoV Urbani / Binding of Control Serum Blood-Bank to Looped peptides of the protein M of SARS-CoV Urbani: unit not given here
[4] = system: antibodies in sera from SARS patients (sera 1a, 1b, 2, 6, 37, 62, London, SARS-yellow, SARS-green); format: binding, human; parameters: Binding of serum 6 to linear peptides of protein X1 of SARS-CoV Urbani / Binding of serum 37 to linear peptides of protein X1 of SARS-CoV Urbani / Binding of serum 6 to looped/cyclic peptide (PEPSCAN-ELISA) / Binding of serum 37 to looped/cyclic peptide (PEPSCAN-ELISA) / Binding of serum 37 to looped/cyclic peptides of protein X1 of SARS-CoV Urbani / Binding of serum 6 to linear peptides of protein X2 / Binding of serum 37 to linear peptides of protein X2 / Binding of serum 37 to looped/cyclic peptides of protein X2 of SARS-CoV Urbani / Binding of serum 6 to linear peptides of protein M of SARS-CoV Urbani / Binding of serum 37 to linear peptides of protein M of SARS-CoV Urbani / Binding of serum 6 to looped/cyclic peptides of protein M of SARS-CoV Urbani / Binding of serum 37 to looped/cyclic peptides of protein M of SARS-CoV Urbani / Binding of serum 6 to linear peptides of protein X3 of SARS-CoV Urbani / Binding of serum 37 to linear peptides of protein X3 of SARS-CoV Urbani / Binding of serum 37 to looped/cyclic peptides of protein X3 of SARS-CoV Urbani / Binding of serum 6 to linear peptides of protein X4 of SARS-CoV Urbani / Binding of serum 37 to linear peptides of protein X4 of SARS-CoV Urbani / Binding of serum 37 to looped/cyclic peptides of protein X4 of SARS-CoV Urbani / Binding of serum 6 to linear peptides of protein X5 of SARS-CoV Urbani / Binding of serum 37 to linear peptides of protein X5 of SARS-CoV Urbani / Binding of serum 37 to looped/cyclic peptides of protein X5 of SARS-CoV Urbani / Binding of serum 6 to linear peptides of protein N of SARS-CoV Urbani / Binding of serum 37 to linear peptides of protein N of SARS-CoV Urbani / Binding of serum 6 to linear peptide (PEPSCAN-ELISA) / Binding of serum 1a to looped/cyclic peptides of protein N of SARS-CoV Urbani / Binding of serum 1b to looped/cyclic peptides of protein N of SARS-CoV Urbani / Binding of serum 2 to looped/cyclic peptides of protein N of SARS-CoV Urbani / Binding of serum 6 to looped/cyclic peptides of protein N of SARS-CoV Urbani / Binding of serum 37 to looped/cyclic peptides of protein N of SARS-CoV Urbani / Binding of serum 62 to looped/cyclic peptides of protein N of SARS-CoV Urbani / Binding of serum London to looped/cyclic peptides of protein N of SARS-CoV Urbani / Binding of serum SARS-green to looped/cyclic peptides of protein N of SARS-CoV Urbani: unit not given here

Sequence	Binding of a rabbit serum to linear peptides of protein N of SARS-CoV Urbani (Rabbit serum linear peptides) [1]	Binding of a rabbit serum to looped/cyclic peptides of protein N of SARS-CoV Urbani (Rabbit serum looped peptides) [1]	Binding of antibody 03-018 to linear peptides of the N protein of SARS-CoV Urbani [2]	Binding of antibody 03-018 to looped/cyclic peptides of the N protein of SARS-CoV Urbani [2]	Binding of Control Serum Blood-Bank to Looped peptides [3]	Binding of Control serum Blood-bank to linear peptides [3]	Binding of Control serum LUMC to linear peptides [3]	Binding of Control serum LUMC to looped peptides [3]	Binding of serum 1a to looped/cyclic peptides of protein N of SARS-CoV Urbani [4]	Binding of serum 1b to looped/cyclic peptides of protein N of SARS-CoV Urbani [4]	Binding of serum 2 to looped/cyclic peptides of protein N of SARS-CoV Urbani [4]	Binding of serum 6 to looped/cyclic peptides of protein N of SARS-CoV Urbani [4]	Binding of serum 37 to looped/cyclic peptides of protein N of SARS-CoV Urbani [4]	Binding of serum 62 to looped/cyclic peptides of protein N of SARS-CoV Urbani [4]	Binding of serum London to looped/cyclic peptides of protein N of SARS-CoV Urbani [4]	Binding of serum SARS-green to looped/cyclic peptides of protein N of SARS-CoV Urbani [4]	Binding of serum SARS-yellow to looped/cyclic peptides of protein N of SARS-CoV Urbani [4]	Binding of serum 1a to linear peptides of protein N of SARS-CoV Urbani [4]	Binding of serum 1b to linear peptides of protein N of SARS-CoV Urbani [4]	Binding of serum 2 to linear peptides of protein N of SARS-CoV Urbani [4]	further results
TKKSAAEASKKPRQK	0.1	0.2	0.1	0.2	0.4	0.8	0.9	0.4	0.2	0.1	0.2	0.1	0.4	0.3	0.3	0.0	0.2	–	–	–	Recognition of the peptide by sera of SARS-CoV infected individuals, and form (linear, looped/cyclic) in which it is recognized [4]: recognized in linear form
TNSGPDDQIGYYRRA	0.2	0.5	0.1	0.2	0.7	1.2	0.9	0.9	0.5	0.4	0.5	0.3	0.9	0.8	0.6	0.6	0.7	0.3	0.2	0.2	Binding of serum 6 to linear peptides of protein N of SARS-CoV Urbani [4]: 0.2; Binding of serum 37 to linear peptides of protein N of SARS-CoV Urbani [4]: 0.7; Binding of serum 62 to linear peptides of protein N of SARS-CoV Urbani [4]: 0.7; Binding of serum London to linear peptides of protein N of SARS-CoV Urbani [4]: 0.5; Binding of serum SARS-green to linear peptides of protein N of SARS-CoV Urbani [4]: 0.4; Binding of serum SARS-yellow to linear peptides of protein N of SARS-CoV Urbani [4]: 0.6
TPKDHIGTRNPNNNA	0.1	0.4	0.1	0.2	0.5	0.9	0.9	0.6	0.3	0.3	0.3	0.2	0.5	0.3	0.3	0.3	0.3	0.3	0.1	0.3	Binding of serum 6 to linear peptides of protein N of SARS-CoV Urbani [4]: 0.2; Binding of serum 37 to linear peptides of protein N of SARS-CoV Urbani [4]: 0.9; Binding of serum 62 to linear peptides of protein N of SARS-CoV Urbani [4]: 0.8; Binding of serum London to linear peptides of protein N of SARS-CoV Urbani [4]: 0.5; Binding of serum SARS-green to linear peptides of protein N of SARS-CoV Urbani [4]: 0.4; Binding of serum SARS-yellow to linear peptides of protein N of SARS-CoV Urbani [4]: 0.7
